Measured values reported in patent US12678425B2, “Methods for treating against viruses” (Howard University, priority 2019, dated 2026).

Columns and labels:
[1] = test system: HEp-2 cells; assay: Trypan blue exclusion cell viability; type: cell-based; conditions: 24-hour treatment
Experimental: In order to assess whether the compounds are producing any toxicity that can led to the cell deaths, we evaluated the cell viability by the trypan blue exclusion method. As long-term inhibition of RACK1 expression has been reported to cell cycle arrest, we limited our experimental treatments to 24 h and evaluated the cell viability of almost full confluent cells after 24 h of compound treatment.
In table 2, the viability of cells was measured with Trypan blue exclusion assay in a Cellometer (Nexcelom, Lawrence, MA). The percentage survival of the compound treated cells was evaluated along with the DMSO treated cells. The values represent the mean f SE of three separate well based replicates.

[2] = test system: HSV-1 strain 17; assay: Plaque formation unit (pfu) assay in HEp-2 cells
Experimental: The viral plaque assay was performed as previously described (Tang et al. “Determination of minimum herpes simplex virus type 1 components necessary to localize transcriptionally active DNA to ND10,” J. Virol. 2003; 77:5821-28), with slight modifications. The HSV-1 strain 17 was diluted serially in a volume of 1 mL. Then 300 ul of the virus was added onto confluent HEp-2 cell monolayers in 12-well plates; each dilution had 3 wells. After adsorption for 2 h, the medium was removed and the cells were washed twice with serum-free DMEM and overlaid with phenol-free DMEM containing 5% FCS, 0.5% low-melting point agarose (GIBCO), and 1% penicillin-streptomycin. The cells were incubated at 370 C for 48 hours. Neutral red was added on the agarose to stain the live cells. The plaques were counted and reported as pfu per mL. Mean pfu was determined after averaging the number of pfu from different dilutions.

[3] = test system: RACK1A Y248 phosphorylation; assay: Immunoblot of ABA-induced RACK1A Y248 phosphorylation in seedlings; type: cell-based, Arabidopsis; conditions: 10 μM ABA, 12 hours
[4] = test system: HSV-1 ICP0 protein; assay: Immunofluorescence and confocal microscopy of ICP0 in Hep-2 cells; type: cell-based; conditions: 10 μM, HSV-1 MOI 1.0, 30 h
Experimental: The HEp-2 cells were infected with HSV-1 at an MOI of 1.0 for 30 h along with the indicated compounds and control. The cells were fixed with 4% paraformaldehyde and stained with anti-ICPO-FITC in green and DAPI (blue for DNA label in the nucleus). The slides were observed under a Nikon confocal microscope (60× magnification lens) and pictures were taken to show infected cells (green) and total cells (DAPI). All scale bars correspond to 20 μm. The imaging experiments were performed three independent times, and the results as shown are representative of one of three experiments.
Hep-2 cells were grown to about 80% confluency in 12 well plate and the cells were co-infected with HSV-1 at an MOI of 1.0 for 30 h along with the indicated inhibitor compounds and control. The cells were fixed at room temperature with 4% paraformaldehyde-PBS for 15 minutes and then permeabilized at room temperature by 0.5% Triton X-100-PBS (pH 7.4) for 10 min. The cells were then washed 3× with Ice cold PBS. The cells were incubated with 1% BSA, 22.52 mg/mL glycine in PBST (PBS+0.1% Tween 20) for 30 min to block unspecific binding of the antibodies. The cells were incubated in the 1:500 diluted anti-ICP0 antibody in 1% BSA in PBST in a humidified chamber overnight at 4° C. […]

[5] = test system: Hep-2 cells infected with HSV-1; assay: Fluorescence cell sort in Cellometer, HSV-1 infected Hep-2 cells; type: cell-based, human; conditions: 24-h incubation, HSV-1 MOI 1.0
Experimental: FIG. 13 depicts the quantification of fluorescent cells by Image based cell sorting in a Cellometer (Nexcelom Vision), based on the experiments depicted in FIG. 12. […] The cells were prepared by immunostaining with ICP0 antibody after 24-h incubation with the indicated compounds. The total cell counts were 1.01×10^6/ml, 4.69×10^6/ml, and 5.36×10^6/ml for DMSO, SD29-14 (10 μM), and SD29-14 (100 μM) respectively. The numbers show the mean f SE of three replicates.
Fluorescence Cell Sort: Hep-2 cells were grown to about 80% confluency in T25 Cell culture flask and were co-infected with HSV-1 at a MOI of 1.0 for 24 h along with the indicated inhibitor compounds and control. After trypsinization, the cells were fixed in 4% paraformaldehyde-PBS. The cells were treated in the same method as described in the immunofluorescence and confocal microscopy method section. The labeled cells were counted in a Nexcelom Vision Cellometer equipped with Brightfield & 2 Fluorescence Channels Filter Set 101: Excitation/Emission Peak: 475 nm/535 nm and Filter Set 202: Excitation/Emission Peak: 525 nm/595 nm. […] Bright-field and fluorescent images were then captured and analyzed at four different locations by the Cellometer image analysis software to directly determine the cell concentration of fluorescently labelled cells. […]

[6] = test system: HSV-1; assay: Protection from HSV-1 cytopathic effect in HEp-2 cells (microscopy); type: cell-based; conditions: different concentrations, 24 h
Text: FIG. 15 depicts the results of in vitro testing to confirm the protective effect of a representative compound (SD-29-14) from the cytopathic effect caused by HSV-1. […] After washing away the virus with PBS, images were taken under a compound microscope.

[7] = test system: Human Annexin A2; assay: LC-MS of Annexin A2 abundance after compound treatment; type: cell-based; parameters: Annexin A2 fragment abundance: reference not given here; conditions: for Abundance ratio 1: SD29-14 over DMSO (10 uM); for Abundance ratio 2: SD29-14 over DMSO (100 uM)
Experimental: To further confirm this mechanism of action, LC-MS (Liquid Chromatography-Mass Spectrometry) was conducted to determine the effect of RACK1 inhibition on ANXA2 expression.

[8] = test system: HSV-1 proteins (ICP0, ICP8, gD); assay: Western blot of HSV-1 proteins in pre-treated HEp-2 cells; type: cell-based; conditions: 100 μM, 24 hours pre-treatment, 24 h post infection
Experimental: (§1) Panel A of FIG. 8 depicts time and concentration dependent virus protein expression to deduce an optimum drug treatment regimen. […] Tubulin expression was used as the loading control for the blots.
(§2) Proteins were separated by SDS-PAGE (25 μg loaded in each lane), transferred to nitrocellulose membranes (Amersham Inc., Piscataway, NJ, USA), and blocked with 5% nonfat milk for 60 min at room temperature. Membranes were incubated overnight at 4° C. with primary antibody, followed by incubation with a horseradish peroxidase-coupled secondary antibody and detection with enhanced chemiluminescence (Pierce, Rockford, IL, USA), according to standard methods. Membranes were stripped with stripping buffer (100 mM 2-mercaptoethanol, 2% SDS, 62.5 mM Tris-HCl, pH 6.8), washed with PBS-0.1% Tween-20, and used to detect additional proteins. For Arabidopsis lysates one-week old seedlings were treated with 10 uM of ABA in the presence/absence of the inhibitor compounds for 12 hours in a growth chamber (overnight) at 22° C. mostly in the dark. Lysates were isolated in lysis buffer (Cell Signaling, Danvers, MA) supplemented with plant protease inhibitor (Sigma-Aldrich), phosphatase inhibitor cocktail A and B (Santa Cruz Biotechnology, Dallas, TX), and N-Ethylamaleimide (Sigma-Aldrich, St. Louis, MO). […]

[9] = target: T1, RACK1 (Homo sapiens, UniProt P63244); assay: Western blot of RACK1 in pre-treated, HSV-1 infected HEp-2 cells; type: cell-based; conditions: 100 μM, 24 hours pre-treatment, 24 h post infection
T1 construct: endogenous in cells; host or cells: HEp-2 cells (ATCC), infected with HSV-1
Experimental: as §1, §2

[10] = test system: RACK1 protein expression; assay: Immunoblot of RACK1 expression under salt stress
Text: The abundant leaf protein Rubisco large subunit (RbcL) was used as a loading control for the blot.
As the antibody cross-reacts with all three RACK1 isoforms in Arabidopsis, we used the double knockout (rack1ab) as a negative control on the blot (triple mutant is lethal at the early seedling stage). The large subunit of the abundant leaf protein rubisco (RbcL) was used as loading control for this blot.

## COc1ccc(-c2nnc(SCC(=O)O)n2N)cc1 [SD-29-12]
[1]; 10 μM
  HEp-2 Cell viability, Mean (percentage survival): 92.7%
[1]; 100 μM
  HEp-2 Cell viability, Mean (percentage survival): 97.7%
[2]; 0 hpl
  Plaque formation unit (pfu): 0 ± 0 PFU/mL
[2]; 6 hpl
  Plaque formation unit (pfu): 3.8 ± 0.07 × 10^2 PFU/mL
[2]; 12 hpl
  Plaque formation unit (pfu): 3.6 ± 0.04 × 10^3 PFU/mL
[2]; 24 hpl
  Plaque formation unit (pfu): 2.6 ± 0.03 × 10^6 PFU/mL

## Nn1c(S)nnc1-c1cc(Cl)cc(Cl)c1 [SD-29-14]
[1]; 10 μM
  HEp-2 Cell viability, Mean (percentage survival): 97.5%
[1]; 100 μM
  HEp-2 Cell viability, Mean (percentage survival): 93.7%
[3]
  ABA-induced RACK1A Y248 phosphorylation: prevented the ABA-induced Y248 phosphorylation
[4]
  expression of ICP0 protein (immunofluorescence): effectively eliminated any expression of ICP0 protein
[5]; 10 μM
  total cell counts: 4.69e+06 mL⁻¹
[5]; 100 μM
  total cell counts: 5.36e+06 mL⁻¹
[6]
  cytopathic effect caused by HSV-1: do not show the cytopathic effect
[7]; LC-MS, SD29-14 treatment
  abundance of human ANXA2: increased abundance
[7]; fragment DALNIETAIK, 10 uM
  Annexin A2 fragment abundance: 317727.9
[7]; fragment DALNIETAIK, 100 uM
  Annexin A2 fragment abundance: 130507.6
[7]; fragment DALNIETAIK
  Abundance ratio 1: 7.765
  Abundance ratio 2: 3.19
[7]; fragment GVDEVTIVNILTNR, 10 uM
  Annexin A2 fragment abundance: 133381
[7]; fragment GVDEVTIVNILTNR, 100 uM
  Annexin A2 fragment abundance: 9540
[7]; fragment GVDEVTIVNILTNR
  Abundance ratio 1: >100
  Abundance ratio 2: >100
[7]; fragment TNQELQEINR, 10 uM
  Annexin A2 fragment abundance: 462054
[7]; fragment TNQELQEINR, 100 uM
  Annexin A2 fragment abundance: 190293
[7]; fragment TNQELQEINR
  Abundance ratio 1: 10.502
  Abundance ratio 2: 4.325

## Nn1c(S)nnc1-c1ccc(F)cc1 [SD-29]
[1]; 10 μM
  HEp-2 Cell viability, Mean (percentage survival): 94.0%
[1]; 100 μM
  HEp-2 Cell viability, Mean (percentage survival): 92.7%
[3]
  ABA-induced RACK1A Y248 phosphorylation: prevented the ABA-induced Y248 phosphorylation
[8]
  viral protein levels (ICP0, ICP8, gD): lower than that of DMSO- or SD-29-12-treated HEp-2 cells
[9]
  production of RACK1: reduced the production of RACK1
[2]; 0 hpl
  Plaque formation unit (pfu): 0 ± 0 PFU/mL
[2]; 6 hpl
  Plaque formation unit (pfu): 0 ± 0 PFU/mL
[10]
  RACK1 protein expression under salt stress: inhibited RACK1 protein expression
